From US7875601B2, “Cancer treatment with epothilones” (Novartis AG, priority 1998, dated 2011)
Marks after values point to notes of the source that are not given here.

Columns and labels:
[1] = tested on: KB-8511; conditions: KB-8511 vs KB-31; cited from earlier work
[2] = tested on: KB-8511 (Epidermoid, MDR); experiment: Antiproliferative assay, KB-8511; assay type: cell-based, human; conditions: KB-8511 vs parental line
Method: The human epidermal (mouth) carcinoma cell line KB-8511 (a P-gp over-expressing cell line derived from the epidermoid (mouth) KB-31 carcinoma cell line) is obtained from Dr. R. M. Baker, Roswell Park Memorial Institute (Buffalo, N.Y., USA) (for description see Akiyama et al., Somat. Cell. Mol. Genetics 11, 117-126 (1985) and Fojo A., et al., Cancer Res. 45, 3002-3007 (1985)) and is cultured as previously described (Meyer, T., et al., Int. J. Cancer 43 851-856 (1989)).
Antiproliferative assays are performed as previously described (Int. J. Cancer 43, 851-6 (1989)). Briefly, cells are seeded at 1.5×10^3 cells/well into 96-well microtiter plates and incubated overnight. Compounds are added in serial dilutions on day 1. The plates are then incubated for an additional 2 to 5 days, allowing for at least one cell doubling (cell line dependent), after which the cells are fixed with 3.3% v/v glutaraldehyde, washed with water and stained with 0.05% w/v methylene blue. After washing, the dye is eluted with 3% v/v HCl and the optical density measured at 665 nm with a SpectraMax 340 (Bucherer, Basel, Switzerland). IC50 values are determined by a computerized system (SoftPro, Bucherer, Basel, Switzerland) using the formula (OD test−OD start)/(OD control−OD start)×100. IC50 is defined as the drug concentration which leads to 50% of cells per well compared to control cultures (100%) at the end of incubation period.

[3] = tested on: human HCT-15 colon carcinoma; experiment: Antitumor effect against s.c. transplanted HCT-15 tumors; assay type: in vivo, female BALB/c nude mice
From the text: Human colorectal adenocarcinoma cell line HCT-15 (ATCC CCL 225) is from the American Type Culture Collection (Rockville, Md., USA), and the cells are cultivated in vitro as recommended by the supplier. HCT-15 is an epithelial-like cell line. (Cancer Res. 39: 1020-25 [1979]) that is multi-drug resistant by virtue of over-expression of P-glycoprotein (P-gp, gp170, MDR-1;Anticancer Res. 11: 1309-12 [1991]; J. Biol. Chem. 264: 18031-40 [1989]; Int. J. Cancer 1991; 49: 696-703 [1991]) and glutathione-dependent resistance mechanisms (Int. J. Cancer 1991; 49: 688-95 [1991]).
(§1) Female or male BALB/c nu/nu (nude) mice are kept under sterile conditions (10 to 12 mice per Type III cage) with free access to food and water. Mice weigh between 20 and 25 grams at the time of tumor implantation. Tumors are established by subcutaneous injection of cells (minimum 2×10^6 cells in 100 μl PBS or medium) in carrier mice (4-8 mice per cell line). The resulting tumors are serially passaged for a minimum of three consecutive transplantations prior to start of treatment. Tumor fragments (approx. 25 mg) are implanted s.c. into the left flank of animals with a 13-gauge trocar needle while the mice are exposed to Forene (Abbott, Switzerland) anesthesia.
(§2) Tumor growth and body weights are monitored once or twice weekly. All treatments are administered intravenously (i.v.) and are initiated when a mean tumor volume of approximately 100 to 250 mm^3 is attained, depending upon the tumor type. Tumor volumes are determined using the formula […] (see Cancer Chemother. Pharmacol. 24:148-154, [1989]). Treatments with epothilone B vary the dose and the frequency of administration. Comparator agents are administered according to previously determined optimal treatment regimens. In addition to presenting changes in tumor volumes over the course of treatment, antitumor activity is expressed as T/C % (mean increase of tumor volumes of treated animals divided by the mean increase of tumor volumes of control animals multiplied by 100). Tumor. regression (%) represents the smallest mean tumor volume compared to the mean tumor volume at the start of treatment, according to the formula Regression (%)=(1−Vend/Vstart)×100(Vend=final mean tumor volume, Vstart=mean tumor volume at the start of treatment. Any animals in which the tumor has reached a size exceeding approximately 1.5 to 2.5 cm^3 are sacrificed. Details can be found below.
Tumor volumes are used as the primary indicator of activity of antitumor agents used alone or in combination, and changes in body weights are measured as an indicator of treatment tolerability.

[4] = tested on: human COLO 205 colon tumors; assay type: in vivo, female BALB/c nude mice; conditions: 75 mg/kg, day 32
Method: as §1, §2

[5] = 75 mg/kg, i.v., on days 14 and 21
[6] = 75 mg/kg, i.v., on days 14 and 21, mean ± SEM

## COc1cc2c(c(OC)c1OC)-c1ccc(OC)c(=O)cc1[C@@H](NC(C)=O)CC2 [colchicine]
[1]
  relative resistance when compared with the KB-31 cells: ~40 fold

## CC(=O)O[C@H]1C(=O)[C@@]2(C)[C@H]([C@H](OC(=O)c3ccccc3)[C@]3(O)C[C@H](OC(=O)[C@H](O)[C@@H](NC(=O)c4ccccc4)c4ccccc4)C(C)=C1C3(C)C)[C@]1(OC(C)=O)CO[C@@H]1C[C@@H]2O [paclitaxel, reference compound]
[2]
  relative resistance, IC50 (resistant line)/IC50 (parental line): (343)^a

## O=c1[nH]cc(F)c(=O)[nH]1 [5-fluorouracil, reference compound]
[3]; [5]
  Regression: none
  T/C: 88%
[3]; [6]
  % Body Weight Change: 9 ± 4%
  D Body Weight: 2.0 ± 0.7 g
  D Tumor Volume (mm^3): 1654 ± 824 mm^3
[3]; two 75 mg/kg administrations
  deaths: 50%
[4]; i.v. every 7 days (days 14, 21, 28)
  T/C: 18%
[4]; i.v. every 7 days
  Regression: none
  Δ Tumor Volume (mm^3): 62 ± 12 mm^3
